Experimental data from patent US20220281848A1, “PYRAZOLE-SUBSTITUTED PYRROLIDINONES AS HERBICIDES” (FMC Corporation, priority 2019, published 2022).

Tested on: plants
Assay: Test D post-emergence, other plants of Tables D2 and D4
Type: in vivo
Conditions: for damage to plant (100=total damage to plant; 0=no damage to plant), ABUTH / damage to plant (100=total damage to plant; 0=no damage to plant), AMARE / damage to plant (100=total damage to plant; 0=no damage to plant), BIDPI / damage to plant (100=total damage to plant; 0=no damage to plant), BRAPL / damage to plant (100=total damage to plant; 0=no damage to plant), CYPES / damage to plant (100=total damage to plant; 0=no damage to plant), DIGSA / damage to plant (100=total damage to plant; 0=no damage to plant), ECHCG / damage to plant (100=total damage to plant; 0=no damage to plant), ELEIN / damage to plant (100=total damage to plant; 0=no damage to plant), EPHHL / damage to plant (100=total damage to plant; 0=no damage to plant), GLXMA / damage to plant (100=total damage to plant; 0=no damage to plant), IPOHE / damage to plant (100=total damage to plant; 0=no damage to plant), ORYSA / damage to plant (100=total damage to plant; 0=no damage to plant), PANMI / damage to plant (100=total damage to plant; 0=no damage to plant), SETFA / damage to plant (100=total damage to plant; 0=no damage to plant), SORVU: post-emergence
In short: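 Damage was rated visually from 0 (none) to 100 (total), at 20 DAA for pre-emergence and 15 d for post-emergence. Plants grew from safener-treated seed in a glasshouse at 24/18° C. or 20/16° C. day/night, 65% humidity, watered twice daily.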

[1] = "Cereals" Postemergent, Rates 130, evaluated after 15 d
[2] = "Cereals" Postemergent, Rates 250, evaluated after 15 d
[3] = "Cereals" Postemergent, Rates 500, evaluated after 15 d

CN1CC(c2cc(C(F)(F)F)n(C)n2)C(C(=O)Nc2ccc(F)nc2F)C1=O (racemic) [Compound 22]
50: VERPE damage rating (100=total damage to plant; 0=no damage to plant) [2] | damage to plant (100=total damage to plant; 0=no damage to plant), BRAPL (rate 250, evaluated after 15 d) | damage to plant (100=total damage to plant; 0=no damage to plant), ECHCG (rate 500, evaluated after 15 d) | damage to plant (100=total damage to plant; 0=no damage to plant), IPOHE (rate 500, evaluated after 15 d)
30: CHEAL damage rating (100=total damage to plant; 0=no damage to plant) [3] | STEME damage rating (100=total damage to plant; 0=no damage to plant) [3] | damage to plant (100=total damage to plant; 0=no damage to plant), ABUTH (rate 500, evaluated after 15 d) | damage to plant (100=total damage to plant; 0=no damage to plant), EPHHL (rate 500, evaluated after 15 d) | damage to plant (100=total damage to plant; 0=no damage to plant), IPOHE (rate 250, evaluated after 15 d)
10: ALOMY damage rating (100=total damage to plant; 0=no damage to plant) [3] | AVEFA damage rating (100=total damage to plant; 0=no damage to plant) [3] | BEAVA damage rating (100=total damage to plant; 0=no damage to plant) [3] | BRSNN damage rating (100=total damage to plant; 0=no damage to plant) [1] | BRSNN damage rating (100=total damage to plant; 0=no damage to plant) [2] | BRSNN damage rating (100=total damage to plant; 0=no damage to plant) [3] | GALAP damage rating (100=total damage to plant; 0=no damage to plant) [3] | HORVW damage rating (100=total damage to plant; 0=no damage to plant) [2] | POLCO damage rating (100=total damage to plant; 0=no damage to plant) [3] | damage to plant (100=total damage to plant; 0=no damage to plant), ABUTH (rate 250, evaluated after 15 d) | damage to plant (100=total damage to plant; 0=no damage to plant), CYPES (rate 500, evaluated after 15 d) | damage to plant (100=total damage to plant; 0=no damage to plant), ELEIN (rate 130, evaluated after 15 d) | damage to plant (100=total damage to plant; 0=no damage to plant), ELEIN (rate 250, evaluated after 15 d) | damage to plant (100=total damage to plant; 0=no damage to plant), GLXMA (rate 250, evaluated after 15 d) | damage to plant (100=total damage to plant; 0=no damage to plant), IPOHE (rate 130, evaluated after 15 d)
70: damage to plant (100=total damage to plant; 0=no damage to plant), BRAPL (rate 500, evaluated after 15 d) | damage to plant (100=total damage to plant; 0=no damage to plant), PANMI (rate 130, evaluated after 15 d)
0: ALOMY damage rating (100=total damage to plant; 0=no damage to plant) [1] | ALOMY damage rating (100=total damage to plant; 0=no damage to plant) [2] | AVEFA damage rating (100=total damage to plant; 0=no damage to plant) [1] | AVEFA damage rating (100=total damage to plant; 0=no damage to plant) [2] | BEAVA damage rating (100=total damage to plant; 0=no damage to plant) [1] | BEAVA damage rating (100=total damage to plant; 0=no damage to plant) [2] | BROTE damage rating (100=total damage to plant; 0=no damage to plant) [1] | BROTE damage rating (100=total damage to plant; 0=no damage to plant) [2] | BROTE damage rating (100=total damage to plant; 0=no damage to plant) [3] | CHEAL damage rating (100=total damage to plant; 0=no damage to plant) [1] | GALAP damage rating (100=total damage to plant; 0=no damage to plant) [1] | HORVW damage rating (100=total damage to plant; 0=no damage to plant) [1] | KCHSC damage rating (100=total damage to plant; 0=no damage to plant) [1] | KCHSC damage rating (100=total damage to plant; 0=no damage to plant) [2] | KCHSC damage rating (100=total damage to plant; 0=no damage to plant) [3] | LOLPE damage rating (100=total damage to plant; 0=no damage to plant) [1] | LOLPE damage rating (100=total damage to plant; 0=no damage to plant) [2] | LOLPE damage rating (100=total damage to plant; 0=no damage to plant) [3] | POAAN damage rating (100=total damage to plant; 0=no damage to plant) [1] | POAAN damage rating (100=total damage to plant; 0=no damage to plant) [2] | POAAN damage rating (100=total damage to plant; 0=no damage to plant) [3] | POLCO damage rating (100=total damage to plant; 0=no damage to plant) [1] | POLCO damage rating (100=total damage to plant; 0=no damage to plant) [2] | STEME damage rating (100=total damage to plant; 0=no damage to plant) [1] | STEME damage rating (100=total damage to plant; 0=no damage to plant) [2] | VERPE damage rating (100=total damage to plant; 0=no damage to plant) [1] | damage to plant (100=total damage to plant; 0=no damage to plant), ABUTH (rate 130, evaluated after 15 d) | damage to plant (100=total damage to plant; 0=no damage to plant), AMARE (rate 130, evaluated after 15 d) | damage to plant (100=total damage to plant; 0=no damage to plant), AMARE (rate 250, evaluated after 15 d) | damage to plant (100=total damage to plant; 0=no damage to plant), AMARE (rate 500, evaluated after 15 d) | damage to plant (100=total damage to plant; 0=no damage to plant), BIDPI (rate 130, evaluated after 15 d) | damage to plant (100=total damage to plant; 0=no damage to plant), BIDPI (rate 250, evaluated after 15 d) | damage to plant (100=total damage to plant; 0=no damage to plant), BRAPL (rate 130, evaluated after 15 d) | damage to plant (100=total damage to plant; 0=no damage to plant), CYPES (rate 130, evaluated after 15 d) | damage to plant (100=total damage to plant; 0=no damage to plant), CYPES (rate 250, evaluated after 15 d) | damage to plant (100=total damage to plant; 0=no damage to plant), ECHCG (rate 130, evaluated after 15 d) | damage to plant (100=total damage to plant; 0=no damage to plant), EPHHL (rate 130, evaluated after 15 d) | damage to plant (100=total damage to plant; 0=no damage to plant), GLXMA (rate 130, evaluated after 15 d) | damage to plant (100=total damage to plant; 0=no damage to plant), ORYSA (rate 130, evaluated after 15 d) | damage to plant (100=total damage to plant; 0=no damage to plant), ORYSA (rate 250, evaluated after 15 d) | damage to plant (100=total damage to plant; 0=no damage to plant), ORYSA (rate 500, evaluated after 15 d) | damage to plant (100=total damage to plant; 0=no damage to plant), SETFA (rate 130, evaluated after 15 d) | damage to plant (100=total damage to plant; 0=no damage to plant), SETFA (rate 250, evaluated after 15 d) | damage to plant (100=total damage to plant; 0=no damage to plant), SORVU (rate 130, evaluated after 15 d) | damage to plant (100=total damage to plant; 0=no damage to plant), SORVU (rate 250, evaluated after 15 d) | damage to plant (100=total damage to plant; 0=no damage to plant), SORVU (rate 500, evaluated after 15 d)
60: VERPE damage rating (100=total damage to plant; 0=no damage to plant) [3] | damage to plant (100=total damage to plant; 0=no damage to plant), DIGSA (rate 250, evaluated after 15 d) | damage to plant (100=total damage to plant; 0=no damage to plant), DIGSA (rate 500, evaluated after 15 d)
40: GALAP damage rating (100=total damage to plant; 0=no damage to plant) [2] | damage to plant (100=total damage to plant; 0=no damage to plant), DIGSA (rate 130, evaluated after 15 d) | damage to plant (100=total damage to plant; 0=no damage to plant), ECHCG (rate 250, evaluated after 15 d) | damage to plant (100=total damage to plant; 0=no damage to plant), ELEIN (rate 500, evaluated after 15 d) | damage to plant (100=total damage to plant; 0=no damage to plant), GLXMA (rate 500, evaluated after 15 d) | damage to plant (100=total damage to plant; 0=no damage to plant), PANMI (rate 500, evaluated after 15 d)
20: CHEAL damage rating (100=total damage to plant; 0=no damage to plant) [2] | HORVW damage rating (100=total damage to plant; 0=no damage to plant) [3] | SINAR damage rating (100=total damage to plant; 0=no damage to plant) (SINAR, "Cereals" Postemergent, Rates 500, evaluated after 15 d) | damage to plant (100=total damage to plant; 0=no damage to plant), BIDPI (rate 500, evaluated after 15 d) | damage to plant (100=total damage to plant; 0=no damage to plant), EPHHL (rate 250, evaluated after 15 d) | damage to plant (100=total damage to plant; 0=no damage to plant), PANMI (rate 250, evaluated after 15 d) | damage to plant (100=total damage to plant; 0=no damage to plant), SETFA (rate 500, evaluated after 15 d)
